From patent publication US12558428B2, “Heterobifunctional compounds and their use in treating disease” (Halda Therapeutics OpCo, Inc., priority 2024, dated 2026)
Like-named read-outs stand apart in the source and are kept apart here.

Columns and labels:
Type in all cases: cell-based
[1] = tested on: T-Rex 293 cells having increased expression of estrogen receptor alpha protein; test: Cellular growth inhibition assay, T-Rex 293 cells, (+) doxycycline; conditions: T-REx-293, 72 h, 72 hours
Method in brief: (§1)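 Viability read-out was CellTiter-Glo 2.0 luminescence after 72 h compound exposure, normalized to zero luminescence and fitted by four-parameter regression to give GI50. Cells were an ERα-inducible T-Rex 293 clone cultured with or without 3 ng/mL doxycycline in charcoal-stripped, phenol red-free medium.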

[2] = tested on: T-Rex 293 cells lacking increased expression of estrogen receptor alpha protein; test: Cellular growth inhibition assay, T-Rex 293 cells, (−) doxycycline; conditions: T-REx-293, 72 h, 72 hours
Method in brief: as §1

[3] = tested on: MCF7 cells (ATCC #HTB-22); test: Cellular growth inhibition assay, MCF7 cells purchased from ATCC; conditions: Homo sapiens, MCF7, 144 h, Table 8-A; MCF7 cells purchased from ATCC; six days; CellTiter-Glo; read-out: GI50
Description: Exemplary compounds were tested for the ability to inhibit the proliferation of MCF7 cells.
MCF7 cells (ATCC #HTB-22 or ECACC #86012803) were cultured in RPMI 1640 medium supplemented with 10% heat-inactivated fetal bovine serum, 1% pen-strep, and 0.2 U/ml insulin. Cells were seeded in 25 μL of RPMI 1640 medium supplemented with 10% heat-inactivated fetal bovine serum, 1% pen-strep, 0.2 U/ml insulin in poly-D-lysine treated, black clear-bottom 384-well plates at 225 cells/well for MCF7 cells purchased from ECACC or 1,500 cells/well for MCF7 cells purchased from ATCC. Following seeding, plates were spun at 300×g for 30 seconds and cultured at 37° C. with 5% CO2 in a humidified tissue culture incubator.
At 24 hours after seeding, compounds were titrated in 100% DMSO and diluted in RPMI 1640 medium supplemented with 10% heat-inactivate fetal bovine serum, 1% pen-strep, and 0.2 U/ml insulin. A 25 μL aliquot of the compound/media mixture was added to cells, bringing the total volume in each well to 50 μL. An equal volume of DMSO without compound was used as a negative control. After treatment, plates were spun at 300×g for 30 seconds, then cultured at 37° C. with 5% CO2 for six days in a humidified tissue culture incubator.
On Day 6 of treatment, cell viability was quantified with CellTiter-Glo 2.0 reagent (Promega). Plates were equilibrated to room temperature for 30 minutes, then 25 μL of CellTiter-Glo 2.0 reagent was added to cells, bringing the total volume in each well to 75 μL. After reagent was added, plates were mixed on a shaker for two minutes at 500 rpm and then incubated at room temperature for 10 minutes. Following incubation, plates were spun at 3,000×g for 30 seconds, sealed with an optical adhesive cover, and luminescence readings were measured with an EnVision Plate Reader.
Data was normalized to 0 luminescence for baseline. A four-parameter, non-linear regression curve fit was applied to dose-response data in GraphPad Prism data analysis software to determine the half maximal growth inhibitory concentration (GI50) for each compound.

[4] = T-Rex 293 cells with doxycycline-induced ERα expression, CellTiter-Glo 2.0, read-out: (+) Dox TRex ERa (GI50)
[5] = T-Rex 293 cells without doxycycline, CellTiter-Glo 2.0, read-out: (−) Dox TRex ERa (GI50)

GI50 [3] [nM]	SMILES	GI50 ([1]; Table 7-A, T-Rex 293 cells with doxycycline (increased ERα expression), CellTiter-Glo, read-out: (+) Dox GI50) [nM]	GI50 ([2]; Table 7-A, T-Rex 293 cells without doxycycline (lacking increased ERα expression), CellTiter-Glo, read-out: (−) Dox GI50) [nM]	GI50 [1, 4] [nM]	GI50 [2, 5] [nM]
< 50	Cc1sc2c(c1C)C(c1ccc(N3CCN(CC4CCN(c5ccc([C@@H]6c7ccc(O)cc7CC[C@@H]6c6ccccc6)cc5)CC4)CC3)cc1)=N[C@@H](Cc1ncco1)c1nnc(C)n1-2 [I-12, (5R,6S)-6-phenyl-5-(4-(4-((4-(4-((S)-2,3,9-trimethyl-6-(oxazol-2-ylmethyl)-6H-thieno[3,2-f][1,2,4]triazolo[4,3-a][1,4]diazepin-4-yl)phenyl)piperazin-1-yl)methyl)piperidin-1-yl)phenyl)-5,6,7,8-tetrahydronaphthalen-2-ol]	< 50	500 to 2500		
< 50	Cc1sc2c(c1C)C(c1ccc(OCCC3CCN(CCOc4ccc(C(=O)c5c(-c6ccc(O)cc6)sc6cc(O)ccc56)cc4)CC3)cc1)=N[C@@H](Cc1ncco1)c1nnc(C)n1-2 [I-13, (S)-(6-hydroxy-2-(4-hydroxyphenyl)benzo[b]thiophen-3-yl)(4-(2-(4-(2-(4-(2,3,9-trimethyl-6-(oxazol-2-ylmethyl)-6H-thieno[3,2-f][1,2,4]triazolo[4,3-a][1,4]diazepin-4-yl)phenoxy)ethyl)piperidin-1-yl)ethoxy)phenyl)methanone]			< 50	50 to 500
500 to 2500	Cc1sc2c(c1C)C(c1ccc(OCCCCC3CCN(c4ccc(C(=O)c5c(-c6ccc(Br)cc6)sc6cc(O)ccc56)cc4)CC3)cc1)=N[C@@H](Cc1ncco1)c1nnc(C)n1-2 [I-14, (S)-(2-(4-bromophenyl)-6-hydroxybenzo[b]thiophen-3-yl)(4-(4-(4-(4-(2,3,9-trimethyl-6-(oxazol-2-ylmethyl)-6H-thieno[3,2-f][1,2,4]triazolo[4,3-a][1,4]diazepin-4-yl)phenoxy)butyl)piperidin-1-yl)phenyl)methanone]			50 to 500	> 2500
< 50	Cc1sc2c(c1C)C(c1ccc(OCCC3CCN(c4ccc(C(=O)c5c(-c6ccc(O)cc6)sc6cc(O)ccc56)cc4)CC3)cc1)=N[C@@H](Cc1ncco1)c1nnc(C)n1-2 [I-15, (S)-(6-hydroxy-2-(4-hydroxyphenyl)benzo[b]thiophen-3-yl)(4-(4-(2-(4-(2,3,9-trimethyl-6-(oxazol-2-ylmethyl)-6H-thieno[3,2-f][1,2,4]triazolo[4,3-a][1,4]diazepin-4-yl)phenoxy)ethyl)piperidin-1-yl)phenyl)methanone]			< 50	< 50
50 to 500	Cc1sc2c(c1C)C(c1ccc(Cl)cc1)=N[C@@H](CC(=O)NCCCCCCCOc1ccc(C(=O)c3c(-c4ccc(O)cc4)sc4cc(O)ccc34)cc1)c1nnc(C)n1-2 [I-16, (S)-2-(4-(4-chlorophenyl)-2,3,9-trimethyl-6H-thieno[3,2-f][1,2,4]triazolo[4,3-a][1,4]diazepin-6-yl)-N-(7-(4-(6-hydroxy-2-(4-hydroxyphenyl)benzo[b]thiophene-3-carbonyl)phenoxy)heptyl)acetamide]			> 2500	> 2500
50 to 500	Cc1sc2c(c1C)C(c1ccc(Cl)cc1)=N[C@@H](CC(=O)NCCCCOCCOc1ccc(C(=O)c3c(-c4ccc(O)cc4)sc4cc(O)ccc34)cc1)c1nnc(C)n1-2 [I-17, (S)-2-(4-(4-chlorophenyl)-2,3,9-trimethyl-6H-thieno[3,2-f][1,2,4]triazolo[4,3-a][1,4]diazepin-6-yl)-N-(4-(2-(4-(6-hydroxy-2-(4-hydroxyphenyl)benzo[b]thiophene-3-carbonyl)phenoxy)ethoxy)butyl)acetamide]			500 to 2500	500 to 2500
< 50	Cc1sc2c(c1C)C(c1ccc(CC3CC4(CCN(CCOc5ccc(C(=O)c6c(-c7ccc(O)cc7)sc7cc(O)ccc67)cc5)CC4)C3)cc1)=N[C@@H](C)c1nnc(C)n1-2 [I-19, (S)-(6-hydroxy-2-(4-hydroxyphenyl)benzo[b]thiophen-3-yl)(4-(2-(2-(4-(2,3,6,9-tetramethyl-6H-thieno[3,2-f][1,2,4]triazolo[4,3-a][1,4]diazepin-4-yl)benzyl)-7-azaspiro[3.5]nonan-7-yl)ethoxy)phenyl)methanone]			< 50	50 to 500
